These are literature values, as cited in patent US20180094248A1, “Necroptosis Signaling as a Therapeutic Target for Alzheimer's Disease” (Arizona Board of Regents on behalf of Arizona State …, priority 2016, published 2018).

The target in one data set is RIPK3 (Homo sapiens, UniProt Q9Y572). The following applies: Kaiser et al., 2013, J. Biol. Chem. 288:31268; cited from earlier work.
The target in a further data set is T1, MLKL (Homo sapiens, UniProt Q8NB16).
T1 sequence (Q8NB16 1-471): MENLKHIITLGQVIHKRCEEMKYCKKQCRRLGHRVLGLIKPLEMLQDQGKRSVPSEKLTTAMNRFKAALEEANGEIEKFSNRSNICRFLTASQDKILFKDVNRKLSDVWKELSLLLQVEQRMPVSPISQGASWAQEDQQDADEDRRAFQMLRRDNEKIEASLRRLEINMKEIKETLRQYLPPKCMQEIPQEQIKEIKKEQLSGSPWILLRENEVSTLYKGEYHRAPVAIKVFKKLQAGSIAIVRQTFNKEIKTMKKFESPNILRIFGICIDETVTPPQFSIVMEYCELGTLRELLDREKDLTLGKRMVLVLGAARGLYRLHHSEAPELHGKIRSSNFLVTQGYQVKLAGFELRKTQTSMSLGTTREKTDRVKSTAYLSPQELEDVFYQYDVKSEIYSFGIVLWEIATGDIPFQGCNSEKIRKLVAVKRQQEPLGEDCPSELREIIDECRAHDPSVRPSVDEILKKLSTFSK
The following applies: Sun et al., 2012, Cell 148:213-27; cited from earlier work.

Structures are written as SMILES.

Chain of RIPK3 (Q9Y572 whole entry): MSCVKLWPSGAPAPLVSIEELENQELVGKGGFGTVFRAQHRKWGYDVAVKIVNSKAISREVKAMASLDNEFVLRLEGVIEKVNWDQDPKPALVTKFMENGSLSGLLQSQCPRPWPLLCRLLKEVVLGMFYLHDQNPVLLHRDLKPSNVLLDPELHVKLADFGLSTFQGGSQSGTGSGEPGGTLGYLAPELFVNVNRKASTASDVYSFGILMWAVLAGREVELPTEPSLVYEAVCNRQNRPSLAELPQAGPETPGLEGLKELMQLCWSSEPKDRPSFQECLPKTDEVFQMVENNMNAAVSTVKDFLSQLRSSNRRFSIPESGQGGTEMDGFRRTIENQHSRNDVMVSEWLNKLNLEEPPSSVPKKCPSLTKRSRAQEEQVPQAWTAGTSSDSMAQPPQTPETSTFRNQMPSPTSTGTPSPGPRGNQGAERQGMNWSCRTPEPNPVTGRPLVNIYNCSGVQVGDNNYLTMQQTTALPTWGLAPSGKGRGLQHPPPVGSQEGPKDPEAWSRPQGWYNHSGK

Take `CC(C)S(=O)(=O)c1ccc2nccc(Nc3ccc4scnc4c3)c2c1` [GSK'872, N-(6-(Isopropylsulfonyl)quinolin-4-yl)benzo[d]thiazol-5-amine]: the “inhibition of RIPK3 (selectivity)” value at RIPK3 is given as “selectively inhibits RIPK3”.

With `COc1nccnc1NS(=O)(=O)c1ccc(NC(=O)/C=C/c2ccc([N+](=O)[O-])s2)cc1` [necrosulfonamide, (E)-N-[4-[[(3-Methoxy-2-pyrazinyl)amino]sulfonyl]phenyl]-3-(5-nitro-2-thienyl)-2-propenamide], the “inhibition of MLKL (selectivity)” value on MLKL is given as “selectively inhibits MLKL”.
